Laboratory results taken from patent publication US10941399B2, “Methods and compositions for gene-specific demethylation by DNA methyltransferase (DNMT)-RNA interaction” (Beth Israel Deaconess Medical Center, Inc., priority 2011, dated 2021).
Entries after “also recorded” stand apart in the source; their conditions may differ. [5mC] = 5-methylcytosine

Tests used:
myeloma cells = conditions: cited from earlier work
HL-60 cells = assay: DRB and ML-60218 treatment of HL-60 cells, transcript levels by Taqman qRT-PCR; type: cell-based, human
Procedure: qRT-PCR: Sybr green reactions were performed using iQ Sybr Green supermix (Biorad, Hercules, Calif.) using the following parameters: 95° C. (10 min.), 40 cycles of 95° C. (15 sec.) and 60° C. (1 min.), and 72° C. (1 min.). TaqMan analysis was performed using Hotstart Probe One-step qRT-PCR master mix (USB) at the following conditions: 50° C. (10 min.), 95° C. (2 min.), and then 40 cycles of 95° C. (15 sec.) and 60° C. (60 sec.). qRT PCR primers were located in the coding region for the mRNA (black double headed arrow) and after the polyA signal for the ecRNA (white double headed arrow) (FIG. 1A). The sequences of primers used for TaqMan real time PCR were as follows: human C/EBPa: Forward 5′-TCG GTG GACAAG AAC AG-3′ (SEQ ID NO:18), Reverse 5′-GCA GGC GGT CAT TG-3′ (SEQ ID NO:19), and Taqman Probe 5′-ACA AGGCCA AGC AGC GC-3′ (SEQ ID NO:20); ecRNA: Forward 5′-GGTTGTCTGTGGGCCAGGTCA-3′(SEQ ID NO:21), Reverse 5′-AGAGCTCATGAAAGTCAGGATTG-3′ (SEQ ID NO:22), and Taqman Probe 5′-AAT AAT ACAGCA TTT TCC CTG GCG G-3′(SEQ ID NO:23); human C/EBPγ: Forward: 5′-GGC TAG AGG AGC AGGTAC AT-3′ (SEQ ID NO:24), Reverse: 5′-GCCTGGGTATGGATAACACTA-3′ (SEQ ID NO:25), and Taqman Probe: 5′-CGACAC CAC TCA TGT CAA TGG CTG-3′ (SEQ ID NO:26); human TP73: ABI Cat. #Hs01060631_m1; 18S rRNA: ABI Cat. #4310893E; and human 5S rRNA: ABI Cat. #Hs02385257_g1. The sequences of primers used for real-time RT PCR (Sybr) were as follows: human C/EBPa: Forward: 5′-CCG CTC CTCCAC GCC TGT CCT TAG-3′ (SEQ ID NO:27) and Reverse: 5′-GCCCCACAGCCAGATCTCTAGGTC-3′ (SEQ ID NO:28); ecRNA: Forward: 5′-TCATGAGCTCTCCATCCATCCTGA-3′(SEQ ID NO:29) and Reverse: 5′-CTG GCCGAG GGT CCT GCT GGA ATC-3′ (SEQ ID NO:30); and β-ACTIN Promega Cat. #G5740.
Double thymidine block (early S-phase block): HL-60 cells were grown overnight to 70-80% confluence, washed twice with 1×PBS, and cultured in DMEM (10% FCS)+2.5 mM thymidine for 18 h (first block). Thymidine was washed out with 1×PBS, and cells were grown in DMEM (10% FCS). After 8 hours, cells were cultured in presence of thymidine for 18 h (second block) and then released as described. Synchrony was monitored by flow cytometry analysis of propidium iodide-stained cells using a LSRII flow cytometer (BD Biosciences) at the Harvard Stem Cell Institute/Beth Israel Deaconess Center flow cytometry facility.
DRB and ML-60218 treatment: After release from double thymidine block, HL-60 cells were treated with 100 μM of 5,6-Dichlorobenzimidazole 1-β-D-ribofuranoside (DRB) (Sigma Aldrich) for 1, 2, and 3 hours. HL-60 cells were treated with 25 μM ML-60218 (2-chloro-N[5-(5-chloro-3-methyl-1-benzothiophen-2-yl)-2-methylpyrazol-3-yl]benzenesulfonamide, Calbiochem®) for 24 hours. Total RNA was harvested as described above and expression levels of C/EBPa, ecRNA, and 5S were measured by Taqman qRT-PCR.

DNMT1 = DNMT1 (Homo sapiens, UniProt P26358); assay: Electrophoretic gel mobility shift assays (EMSA/REMSA) and Kd determination with purified DNMT1; type: binding; design: purchased BPS Bioscience Inc; conditions: for Kd: constant oligonucleotide concentration (1 nM) titrated with increasing DNMT1, nonlinear regression, read-out: dissociation constant (Kd)
DNMT1, sequence (P26358 whole entry): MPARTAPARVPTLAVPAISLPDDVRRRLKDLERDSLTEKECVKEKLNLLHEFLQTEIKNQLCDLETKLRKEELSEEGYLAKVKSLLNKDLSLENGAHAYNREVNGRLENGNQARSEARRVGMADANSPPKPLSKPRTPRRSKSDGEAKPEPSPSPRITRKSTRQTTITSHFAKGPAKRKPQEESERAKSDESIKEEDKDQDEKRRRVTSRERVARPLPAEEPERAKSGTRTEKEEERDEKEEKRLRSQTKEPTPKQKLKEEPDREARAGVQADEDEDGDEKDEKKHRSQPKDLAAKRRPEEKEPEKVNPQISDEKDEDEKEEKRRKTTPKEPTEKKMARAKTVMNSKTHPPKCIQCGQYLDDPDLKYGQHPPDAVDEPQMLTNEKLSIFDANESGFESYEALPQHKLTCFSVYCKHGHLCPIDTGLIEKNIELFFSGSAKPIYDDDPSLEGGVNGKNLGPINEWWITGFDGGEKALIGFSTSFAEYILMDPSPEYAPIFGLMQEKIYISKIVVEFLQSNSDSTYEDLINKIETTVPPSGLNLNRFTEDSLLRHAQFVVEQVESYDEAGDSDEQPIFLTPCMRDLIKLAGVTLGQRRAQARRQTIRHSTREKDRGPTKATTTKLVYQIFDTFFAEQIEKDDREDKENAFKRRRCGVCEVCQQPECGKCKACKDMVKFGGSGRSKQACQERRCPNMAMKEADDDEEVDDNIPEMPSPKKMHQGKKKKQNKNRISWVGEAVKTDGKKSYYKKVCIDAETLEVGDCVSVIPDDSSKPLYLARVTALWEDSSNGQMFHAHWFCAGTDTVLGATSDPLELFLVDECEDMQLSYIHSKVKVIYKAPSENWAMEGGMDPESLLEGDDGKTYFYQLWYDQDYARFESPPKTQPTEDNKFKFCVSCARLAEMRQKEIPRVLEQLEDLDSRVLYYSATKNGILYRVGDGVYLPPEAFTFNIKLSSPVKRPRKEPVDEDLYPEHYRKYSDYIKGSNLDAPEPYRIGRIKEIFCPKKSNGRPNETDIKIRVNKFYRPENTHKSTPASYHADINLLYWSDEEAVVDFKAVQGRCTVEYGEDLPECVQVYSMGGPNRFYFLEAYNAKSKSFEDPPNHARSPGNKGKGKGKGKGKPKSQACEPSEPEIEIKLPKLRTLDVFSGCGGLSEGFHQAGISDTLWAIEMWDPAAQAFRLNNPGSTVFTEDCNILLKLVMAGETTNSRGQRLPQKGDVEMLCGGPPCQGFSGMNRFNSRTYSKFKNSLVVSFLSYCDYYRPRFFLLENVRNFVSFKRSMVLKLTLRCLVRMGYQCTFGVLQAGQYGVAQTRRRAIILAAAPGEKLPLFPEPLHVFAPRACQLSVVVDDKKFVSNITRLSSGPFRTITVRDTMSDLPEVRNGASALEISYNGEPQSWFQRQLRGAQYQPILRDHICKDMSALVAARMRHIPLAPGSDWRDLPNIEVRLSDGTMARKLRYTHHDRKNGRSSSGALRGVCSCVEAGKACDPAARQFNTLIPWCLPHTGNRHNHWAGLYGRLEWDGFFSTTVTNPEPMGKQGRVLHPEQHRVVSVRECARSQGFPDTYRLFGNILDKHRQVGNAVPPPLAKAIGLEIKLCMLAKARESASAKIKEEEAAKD
Procedure: Electrophoretic gel mobility shift assays (EMSAs) and Kd determination: DNA and RNA oligonucleotides (15 pmol) were end-labeled with [γ-32P] ATP (Perkin Elmer) and T4 polynucleotide kinase (New England Biolabs). Reactions were incubated at 37° C. for 1h and then passed through G-25 spin columns (GE Healthcare) according to the manufacturer's instructions to remove unincorporated radioactivity. Labeled samples were gel-purified on 10% polyacrylamide gels. Binding reactions were carried out in 10 μL volumes in the following buffer: 5 mM Tris pH 7.4, 5 mM MgCl2, 1 mM DTT, 3% v/v glycerol, 100 mM NaCl. Various amounts of purified DNMT1 protein (BPS Bioscience Inc., 0.021-0.156 μM) were incubated with 1.1 nM of 32P-labeled dsDNA and ss/ds RNAs. In the competitive assay, a fixed amount of protein and increasing amounts of competitors (dsDNA or poly (dI-dC)) were used. All reactions were assembled on ice and then incubated at room temperature. Samples were loaded onto 6% native polyacrylamide gels (0.5×TBE) at 4° C. for 3 h at 140 V. Gels were dried and exposed to X-ray film and a PhosphorImager screen. Data were analyzed with ImageQuant software. For affinity assays, the percent shifted species was determined as follows: the migration of the labeled DNA in this reaction was defined as zero percent shifted and the ratio of the PhosphorImager counts in the area of the lane above this band to the total counts in the lane was defined as background and subtracted from all other lanes. This band represented total input. Subsequent lanes containing DNMT1-nucleic acid complexes were treated identically, and the percentage complex formation was calculated as follows: [Input-(free probe for each lane+background/input)]. All experiments contained a control reaction lacking DNMT1. The percentage complex formation was plotted as a function of DNMT1 concentration using nonlinear regression analysis using Prism 4.0a.

[1] = 100 μM DRB, 1, 2, 3 h after release from double thymidine block

## Nc1ncn([C@H]2C[C@H](O)[C@@H](CO)O2)c(=O)n1 [5-aza-2′-deoxycytidine]
Myeloma cells
  PU.1 expression: upregulation
  growth of myeloma cells: growth arrest

## OC[C@H]1O[C@@H](n2cnc3cc(Cl)c(Cl)cc32)[C@H](O)[C@@H]1O [DRB, 5,6-Dichlorobenzimidazole 1-β-D-ribofuranoside]
HL-60 cells; [1]
  C/EBPa mRNA expression level: strong down-regulation
  ecRNA expression level: no decrease; also recorded: did not reduce

## Cc1c(-c2cc(NS(=O)(=O)c3ccccc3Cl)n(C)n2)sc2ccc(Cl)cc12 [ML-60218, 2-chloro-N[5-(5-chloro-3-methyl-1-benzothiophen-2-yl)-2-methylpyrazol-3-yl]benzenesulfonamide]
HL-60 cells; 25 μM ML-60218, 24 hours
  5S rRNA level: significantly reduced
  C/EBPa mRNA level: little effect; also recorded: only moderately affected
  ecRNA level: marked down-regulation; also recorded: significantly reduced

## NCCCNCCCCNCCCN [spermine]
DNMT1; REMSA with increasing concentrations of spermine
  effect of spermine on RNA-DNMT1 binding: Only a thousand-fold molar excess of spermine began to moderately affect the binding; also recorded: no significant changes in binding were observed

## R04: ssRNA oligonucleotide of C/EBPa ecRNA, positions 4777-4798 of SEQ ID NO:8 (SEQ ID NO:63), lacking stem-and-loop-like structures (UCACACACACCGCAGCUCCAGA; chemistry not given here; listed as Homo sapiens)
DNMT1
  DNMT1 binding affinity in REMSA (in words): did not display the same binding affinity as folded RNA; also recorded: lower DNMT1 affinity compared to R05

## RNA: folded ssRNA oligonucleotide of C/EBPa ecRNA, positions 4627-4648 of SEQ ID NO:8 (SEQ ID NO:62) (CUGAGGCCUUGGCGAGGCUUCU; chemistry not given here; listed as Homo sapiens)
DNMT1; EMSA
  Kd: 45 nM
DNMT1; EMSA, increasing DNMT1 concentrations
  DNMT1 concentration at which initial complex is formed: < 0.013 µM
DNMT1; ratio versus hmDNA and mDNA
  strength of DNMT1 complex with RNA compared to hmDNA and mDNA: 3 fold
DNMT1; ratio versus umDNA
  strength of DNMT1 complex with RNA compared to umDNA: 2 fold

## hmDNA: hemimethylated dsDNA probe (SEQ ID NOs:65, 72) (chain 1 CTGAGGCCTTGGCGAGGCTTCT; chain 2 AGAAGCCTCGCCAAGGCCTCAG; chain 1: DNA, [5mC] at 13, backbone and methylation of C not given here; chain 2: DNA, backbone not given here; listed as Homo sapiens)
DNMT1; EMSA
  Kd: 140 nM

## mDNA: methylated dsDNA probe (SEQ ID NOs:66, 73) (chain 1 CTGAGGCCTTGGCGAGGCTTCT; chain 2 AGAAGCCTCGCCAAGGCCTCAG; chain 1: DNA, [5mC] at 13, backbone not given here; chain 2: DNA, [5mC] at 9, backbone not given here; listed as Homo sapiens)
DNMT1; EMSA
  Kd: 110 nM

## mutated R01: R01 with C to U substitutions in CpG dinucleotides (SEQ ID NO:69) (CUGGGAUGCAGGUGGUGUCAGGC; chemistry not given here; listed as Homo sapiens)
DNMT1; stem-and-loop-like structure preserved
  DNMT1 binding after C to U substitution of CpG dinucleotides: not affected

## umDNA: unmethylated dsDNA probe (SEQ ID NOs:64, 71) (chain 1 CTGAGGCCTTGGCGAGGCTTCT; chain 2 AGAAGCCTCGCCAAGGCCTCAG; DNA, backbone not given here; listed as Homo sapiens)
DNMT1; EMSA
  Kd: 82 nM
